Target: T1, human cannabinoid CB2 receptor (Homo sapiens, UniProt P34972)
T1 construct: expressed in transfected cells; host or cells: Saccharomyces cerevisiae strain MMY23
Test: Cannabinoid CB2 receptor agonist activity, yeast reporter assay (FDGlu fluorescence);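 on Emax: 100% equals maximal response of reference agonist HU210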
Type: cell-based
Conditions: for Emax: read-out: efficacy value (Emax) at the cloned human cannabinoid CB2 receptor
Protocol: The cannabinoid CB2 receptor agonist activity of the compounds of formula (I) was determined in accordance with the following experimental method.
Yeast (Saccharomyces cerevisiae) cells expressing the human cannabinoid CB2 receptor were generated by integration of an expression cassette into the ura3 chromosomal locus of yeast strain MMY23. This cassette consisted of DNA sequence encoding the human CB2 receptor flanked by the yeast GPD promoter to the 5′ end of CB2 and a yeast transcriptional terminator sequence to the 3′ end of CB2. MMY23 expresses a yeast/mammalian chimeric G-protein alpha subunit in which the C-terminal 5 amino acids of Gpa1 are replaced with the C-terminal 5 amino acids of human Gαi3 (as described in Brown et al. (2000), Yeast 16:11-22). Cells were grown at 30° C. in liquid Synthetic Complete (SC) yeast media (Guthrie and Fink (1991), Methods in Enzymology, Vol. 194) lacking uracil, tryptophan, adenine and leucine to late logarithmic phase (approximately 6 OD600/ml).
Agonists were prepared as 10 mM stocks in DMSO. […] Agonist solutions in DMSO (1% final assay volume) were transferred into black, clear bottom, microtitre plates from NUNC (96- or 384-well). […] This mixture (50 ul per well for 384-well plates, 200 ul per well for 96-well plates) was added to agonist in the assay plates (Multidrop 384, Labsystems). After incubation at 30° C. for 24 hours, fluorescence resulting from degradation of FDGlu to fluorescein due to exoglucanase, an endogenous yeast enzyme produced during agonist-stimulated cell growth, was determined using a Spectrofluor microtitre plate reader (Tecan; excitation wavelength: 485 nm; emission wavelength: 535 nm). Fluorescence was plotted against compound concentration and iteratively curve fitted using a four parameter fit to generate a concentration effect value.
where Max[compound X] and Min[compound X] are the fitted maximum and minimum respectively from the concentration effect curve for compound X, and Max[HU210] and Min[HU210] are the fitted maximum and minimum respectively from the concentration effect curve for (6aR,10aR)-3-(1,1′-Dimethylheptyl)-6a,7,10,10a-tetrahydro-1-hydroxy-6,6-dimethyl-6H-dibenzo[b,d]pyran-9-methanol (HU210; available from Tocris). Equieffective molar ratio (EMR) values were calculated from the equation EMR=EC50 [compound X]/EC50 [HU210]
Where EC50 [compound X] is the EC50 of compound X and EC50 [HU210] is the EC50 of HU210.

T1 sequence (P34972 whole entry): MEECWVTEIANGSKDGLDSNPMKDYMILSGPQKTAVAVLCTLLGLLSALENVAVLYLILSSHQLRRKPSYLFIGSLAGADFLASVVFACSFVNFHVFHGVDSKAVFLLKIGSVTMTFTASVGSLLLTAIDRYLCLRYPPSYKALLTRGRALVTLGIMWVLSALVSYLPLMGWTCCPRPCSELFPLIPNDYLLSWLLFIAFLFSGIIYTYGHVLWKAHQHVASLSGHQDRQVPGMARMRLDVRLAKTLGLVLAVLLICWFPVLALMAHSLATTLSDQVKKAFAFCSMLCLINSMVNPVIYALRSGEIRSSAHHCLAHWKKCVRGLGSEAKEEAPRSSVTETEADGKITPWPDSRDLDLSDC

Row | SMILES | EC50 [nM] | Emax [%]
1 | CC(C)c1cc(Nc2cc(Cl)ccc2F)ncc1C(=O)NCC1CCOCC1 [Example 76, 6-(5-Chloro-2-fluoro-phenylamino)-4-isopropyl-N-(tetrahydro-pyran-4-ylmethyl)-nicotinamide] | < 300 | > 50
2 | CC(C)c1cc(Nc2ccc(F)c(Cl)c2)ncc1C(=O)NCC1CCOCC1 [Example 77, 6-(3-Chloro-4-fluoro-phenylamino)-4-isopropyl-N-(tetrahydro-pyran-4-ylmethyl)-nicotinamide] | < 300 | > 50
3 | CC(C)c1cc(Nc2ccc(OC(F)(F)F)c(Cl)c2)ncc1C(=O)NCC1CCOCC1 [Example 78, 6-(3-Chloro-4-trifluoromethoxy-phenylamino)-4-isopropyl-N-(tetrahydro-pyran-4-ylmethyl)-nicotinamide] | < 300 | > 50
4 | CC(C)c1cc(Nc2ccc(C#N)c(Cl)c2)ncc1C(=O)NCC1CCOCC1 [Example 79, 6-(3-Chloro-4-cyano-phenylamino)-4-isopropyl-N-(tetrahydro-pyran-4-ylmethyl) nicotinamide] |  | > 50
5 | CC(C)c1cc(Nc2cc(F)cc(C(F)(F)F)c2)ncc1C(=O)NCC1CCOCC1 [Example 80, 6-(3-Fluoro-5-trifluoromethyl-phenylamino)-4-isopropyl-N-(tetrahydro-pyran-4-ylmethyl) nicotinamide] | < 300 | > 50
6 | CC(C)c1cc(Nc2cccc(C(F)(F)F)c2F)ncc1C(=O)NCC1CCOCC1 [Example 81, 6-(2-Fluoro-3-trifluoromethyl-isopropyl-N-phenylamino)-4-(tetrahydro-pyran-4-ylmethyl) nicotinamide] |  | > 50
7 | CC(C)c1cc(Nc2ccc(Br)cc2Cl)ncc1C(=O)NCC1CCOCC1 [Example 82] | < 300 | > 50
8 | CC(C)c1cc(Nc2ccc(Cl)cc2Br)ncc1C(=O)NCC1CCOCC1 [Example 83, 6-(2-Bromo-4-chloro-phenylamino)-4-isopropyl-N-(tetrahydro-pyran-4-ylmethyl) nicotinamide] | < 300 | > 50
9 | Cc1c(Nc2cc(C(C)C)c(C(=O)NCC3CCOCC3)cn2)cccc1C(F)(F)F [Example 84, 4-lsopropyl-6-(2-methyl-3-trifluoromethyl-phenylamino)-N-(tetrahydro-pyran-4-ylmethyl)-nicotinamide] | < 300 | > 50
10 | Cc1ccc(Nc2cc(C(C)C)c(C(=O)NCC3CCOCC3)cn2)cc1Cl [Example 85] | < 300 | > 50
11 | Cc1cc(Nc2cc(C(C)C)c(C(=O)NCC3CCOCC3)cn2)ccc1Br [Example 86, 6-(4-Bromo-3-methyl-phenylamino)-4-isopropyl-N-(tetrahydro-pyran-4-ylmethyl)-nicotinamide] | < 300 | > 50
12 | CC(C)c1cc(Nc2cc(Cl)ccc2Cl)ncc1C(=O)NCC1CCOCC1 [Example 87, 6-(2,5-Dichloro-phenylamino)-4-isopropyl-N-(tetrahydro-pyran-4-ylmethyl)-nicotinamide] | < 300 | > 50
13 | Cc1ccc(C(F)(F)F)cc1Nc1cc(C(C)C)c(C(=O)NCC2CCOCC2)cn1 [Example 88, 4-lsopropyl-6-(2-methyl-5-trifluoromethyl-phenylamino)-N-(tetrahydro-pyran-4-ylmethyl)-nicotinamide] | < 300 | > 50
14 | CC(C)c1cc(Nc2ccc(Cl)cc2Br)ncc1C(=O)NCC1CCCC1 [Example 89, 6-(2-Bromo-4-chloro-phenylamino)-N-cyclopentylmethyl-4-isopropyl-nicotinamide] | < 300 | > 50
15 | CC(C)c1cc(Nc2ccc(Br)c(Cl)c2)ncc1C(=O)NCC1CCOCC1 [Example 90, 6-(4-Bromo-3-chloro-phenylamino)-4-isopropyl-N-(tetrahydro-pyran-4-ylmethyl)-nicotinamide] | < 300 | > 50
16 | CC(C)c1cc(Nc2ccc(Cl)cc2F)ncc1C(=O)NCC1CCCC1 [Example 91, 6-(4-Chloro-2-fluoro-phenylamino)-N-cyclopentylmethyl-4-isopropyl-nicotinamide] | < 300 | > 50
17 | CC(C)c1cc(Nc2ccc(C(F)(F)F)c(F)c2)ncc1C(=O)NCC1CCCC1 [Example 92, N-Cyclopentylmethyl-6-(3-fluoro-4-trifluoromethyl-phenylamino)-4-isopropyl-nicotinamide] | < 300 | > 50
18 | Cc1cc(C#N)ccc1Nc1cc(C(C)C)c(C(=O)NCC2CCCC2)cn1 [Example 93, 6-(4-Cyano-2-methyl-phenylamino)-N-cyclopentylmethyl-4-isopropyl-nicotinamide] | < 300 | > 50
19 | CC(C)c1cc(Nc2ccc(C#N)c(C(F)(F)F)c2)ncc1C(=O)NCC1CCOCC1 [Example 96, 6-(4-Cyano-3-trifluoromethyl-phenylamino)-4-isopropyl-N-(tetrahydro-pyran-4-ylmethyl)-nicotinamide] |  | > 50
20 | CC(C)c1cc(Nc2ccc(C#N)cc2F)ncc1C(=O)NCC1CCOCC1 [Example 97, 6-(4-Cyano-2-fluoro-phenylamino)-4-isopropyl-N-(tetrahydro-pyran-4-ylmethyl)-nicotinamide] |  | > 50
21 | O=C(NC1CCC1)c1cnc(Nc2cccc(Cl)c2Cl)cc1C(F)(F)F [Example 104, 6-(2,3-Dichloro-phenylamino)-N-(cyclobutyl)-4-trifluoromethyl-nicotinamide] | < 300 | > 50
22 | O=C(NCC1CCOCC1)c1cnc(Nc2ccc(Cl)cc2Cl)cc1C(F)(F)F [Example 105, 6-(2,4-Dichloro-phenylamino)-N-(tetrahydropyran-4-ylmethyl)-4-trifluoromethyl-nicotinamide] |  | > 50
23 | O=C(NCC1CCS(=O)(=O)C1)c1cnc(Nc2cccc(Cl)c2)cc1C(F)(F)F (centres unmarked) [Example 106, 6-(3-Chloro-phenylamino)-N-(1,1-dioxo-tetrahydrothiophen-3-ylmethyl)-4-trifluoromethyl-nicotinamide] | < 300 | > 50
24 | O=C(NCC1CCCCC1)c1cnc(Nc2ccccc2)cc1C(F)(F)F [Example 107, N-Cyclohexylmethyl-6-phenylamino-4-trifluoro-methyl-nicotinamide] | < 300 | > 50
25 | O=C(NCC1CCCC1)c1cnc(Nc2ccccc2)cc1C(F)(F)F [Example 108, N-Cyclopentylmethyl-6-phenylamino-4-trifluoro-methyl-nicotinamide] | < 300 | > 50
26 | O=C(NCC1CCC1)c1cnc(Nc2ccccc2)cc1C(F)(F)F [Example 109, N-Cyclobutylmethyl-6-phenylamino-4-trifluoro-methyl-nicotinamide] | < 300 | > 50
27 | O=C(NC1CCC1)c1cnc(Nc2cccc(Cl)c2)cc1C(F)(F)F [Example 110, N-Cyclobutyl-6-(3-chloro-phenylamino)-4-trifluoro-methyl-nicotinamide] | < 300 | > 50
28 | O=C(NCC1CCOCC1)c1cnc(Nc2cccc(Cl)c2)cc1C(F)(F)F [Example 111, N-(Tetrahydropyran-4-yl-methyl)-6-(3-chlorophenyl-amino)-4-trifluoromethyl-nicotinamide] |  | > 50

From US20060240048A1 (priority 2002, published 2006)
